Consider 15 molecules from US10000488B2, “Heterocyclic compound” (TAKEDA PHARMACEUTICAL COMPANY LIMITED, priority 2014, dated 2018).

The target in assay [1] is T1, RORγt (Homo sapiens, UniProt P51449).
T1 sequence (P51449 1-497 isoform P51449-2): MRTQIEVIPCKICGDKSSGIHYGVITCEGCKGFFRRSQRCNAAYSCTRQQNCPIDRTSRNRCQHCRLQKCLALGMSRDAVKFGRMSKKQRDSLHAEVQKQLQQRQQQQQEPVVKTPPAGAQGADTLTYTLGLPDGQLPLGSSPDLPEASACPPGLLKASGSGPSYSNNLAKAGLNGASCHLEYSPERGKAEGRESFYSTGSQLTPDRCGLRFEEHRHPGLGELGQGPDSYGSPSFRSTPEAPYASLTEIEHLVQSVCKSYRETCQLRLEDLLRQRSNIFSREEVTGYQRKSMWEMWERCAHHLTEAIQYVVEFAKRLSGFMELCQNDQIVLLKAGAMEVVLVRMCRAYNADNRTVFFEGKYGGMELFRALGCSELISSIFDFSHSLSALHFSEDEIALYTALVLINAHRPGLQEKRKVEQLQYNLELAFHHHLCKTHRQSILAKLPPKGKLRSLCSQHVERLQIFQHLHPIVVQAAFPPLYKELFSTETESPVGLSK
Kind of assay: Jurkat reporter test (human IL-17 ROR response element luciferase reporter, RORγt vector). It is filed as cell-based. The following applies: test compound 3 μM; Jurkat cells; read-out: luminescence level inhibitory rate (%) at test compound 3 μM. The protocol:
The Jurkat cells used for the reporter test were cultured in a culture medium (RPMI (Invitrogen), 10% FCS (AusGeneX), 100 U/mL penicillin, 100 μg/mL streptomycin). On the day of the test, 4×10^7 cells were recovered by a centrifugal operation (1000 rpm, for 5 min) and suspended in PBS (phosphate buffered saline) (Invitrogen). Thereafter, the cells were recovered again by a centrifugal operation, and suspended in 2 mL of R buffer (NEON transfection kit, Invitrogen). […] Gene transfer was performed by Electroporation apparatus (NEON, Invitrogen) under the conditions of pulse voltage 1350 V, interval 10 milliseconds, number of times 3. The cells after gene transfer were suspended in 40 mL of a reaction medium (RPMI, 10% Lipid reduced FCS (HyClone), 10 mM HEPES (pH 7.5), 100 U/mL penicillin, 100 μg/mL streptomycin, 5 μM lovastatin), and plated in a 96 well plate by 90 μL. A test compound diluted with the reaction medium was added by 10 μL, and the cells were cultured overnight in an incubator. Bright-Glo (Promega) was added by 100 μL, and the mixture was stirred at room temperature for 10 min, and the luminescence level was measured by Envision (PerkinElmer).
(A reporter such as luciferase makes a cellular process visible.)

The target in assay [2] is T1, RORγt. Kind of assay: RORγt binding test using fluorescent-labeled synthetic ligand (TR-FRET). The following applies: test compound 1 μM; read-out: binding inhibitory rate (%) of fluorescent-labeled synthetic ligand to RORγt at test compound 1 μM. The method, then: RORγt Binding Test Using Fluorescent-Labeled Synthetic Ligand
The binding activity of the test compound to RORγt was measured by a time resolved fluorescence resonance energy transfer (TR-FRET) utilizing histidine-tagged RORγt, fluorescent-labeled synthetic ligand, and terbium-labeled anti-histidine tag antibody (Invitrogen). First, a test compound diluted with an assay buffer (20 mM Tris-HCl (pH 7.5), 100 mM NaCl, 1 mM DTT, 0.1% BSA) was added to a 384 well plate by 3 μL. Then, RORγt diluted with an assay buffer to 240 nM was added by 3 μL, after which fluorescent-labeled synthetic ligand diluted with the assay buffer to 12 μM was added by 3 μL, and the mixture was stood at room temperature for 20 min. Thereafter, a terbium-labeled anti-histidine tag antibody diluted with the assay buffer to 8 nM was added by 3 μL. The mixture was stood at room temperature for 20 min, and fluorescence intensity (excitation wavelength 320 nm, fluorescence wavelength 520 nm, delay time 100 microseconds) was measured by Envision (PerkinElmer).
(In general: Time-resolved FRET reads energy transfer from a long-lived donor to a nearby acceptor.)

Assay [3] deals with T1, RORγt. Kind of assay: Cofactor recruitment test (Alpha Screen, biotinylated SRC-1 peptide). It counts as biochemical. The conditions noted are these: read-out: signal value inhibitory rate (%) at test compound 1 μM. The method, then: Cofactor Recruitment Test
Cofactor recruitment test was performed by Alpha Screen (Histidine Detection Kit, PerkinElmer) method. First, a test compound was diluted with an assay buffer (50 mM Tris-HCl (pH 7.5), 50 mM KCl, 1 mM DTT, 0.1% BSA) and added to a 384 well plate by 5 μL. […] The mixture was stood in a dark place for 1 hr, and the signal value was measured by Envision (PerkinElmer).

SMILES strings stand for the structures. Counter-ions that a name gives are not always drawn.

Regarding `CC(C)n1c(=O)n(CC2CC2)c(=O)c2cc(NC(=O)N3CCNC(C(=O)Nc4ccc(C#N)c(Cl)c4)C3)ccc21` (stereo not drawn) [Example 82, N^3-(3-chloro-4-cyanophenyl)-N^1-(3-(cyclopropylmethyl)-1-isopropyl-2,4-dioxo-1,2,3,4-tetrahydroquinazolin-6-yl)piperazine-1,3-dicarboxamide], the inhibition at 3 µM on RORγt [1] stood at 102%. Moreover, the inhibition at 1 µM came out at 101% on RORγt [2] and 103% at RORγt [3].
On to `CC(C)n1c(=O)n(CC2CC2)c(=O)c2cc(NC(=O)N3CCCC(NC(=O)c4ccc(C#N)c(Cl)c4)C3)ccc21` (stereo not drawn) [Example 88, 3-((3-chloro-4-cyanobenzoyl)amino)-N-(3-(cyclopropylmethyl)-1-isopropyl-2,4-dioxo-1,2,3,4-tetrahydroquinazolin-6-yl)piperidine-1-carboxamide], for which the inhibition at 3 µM at RORγt [1] was 102%. The inhibition at 1 µM at RORγt [2] and at RORγt [3] was 102% in each case.
As for `CC(C)n1c(=O)n(CC2CC2)c(=O)c2cc(NC(=O)N3CCNC(C(=O)Nc4ccc(C#N)c(F)c4)C3)ccc21` (stereo not drawn) [Example 92, N^3-(4-cyano-3-fluorophenyl)-N^1-(3-(cyclopropylmethyl)-1-isopropyl-2,4-dioxo-1,2,3,4-tetrahydroquinazolin-6-yl)piperazine-1,3-dicarboxamide hydrochloride], the inhibition at 3 µM on RORγt [1] turned out to be 103%. Besides, the inhibition at 1 µM on RORγt [2] amounted to 102%; on RORγt [3], 103%.
Regarding `CC(C)n1c(=O)n(CC2CC2)c(=O)c2cc(NC(=O)N3CCO[C@@H](C(=O)Nc4ccc(C#N)c(F)c4)C3)ccc21` [Example 102, (2R)-N^2-(4-cyano-3-fluorophenyl)-N^4-(3-(cyclopropylmethyl)-1-isopropyl-2,4-dioxo-1,2,3,4-tetrahydroquinazolin-6-yl)morpholine-2,4-dicarboxamide], the inhibition at 3 µM on RORγt [1] was 104%. In addition, the inhibition at 1 µM amounted to 101% on RORγt [2] and 102% on RORγt [3].
Take `CC(C)n1c(=O)n(CC2CC2)c(=O)c2cc(NC(=O)N3CCO[C@@H](C(=O)Nc4cnc(C#N)c(F)c4)C3)ccc21` [Example 103, (2R)-N^2-(6-cyano-5-fluoropyridin-3-yl)-N^4-(3-(cyclopropylmethyl)-1-isopropyl-2,4-dioxo-1,2,3,4-tetrahydroquinazolin-6-yl)morpholine-2,4-dicarboxamide]: at RORγt [1], the inhibition at 3 µM is 103%. The inhibition at 1 µM at RORγt [2] was found to be 101%; on RORγt [3], 102%.
`COC(=O)c1cccc(C(=O)NC2CCCN(C(=O)Nc3ccc4c(c3)c(=O)n(CC3CC3)c(=O)n4C(C)C)C2)c1` (stereo not drawn) [Example 113, methyl 3-((1-((3-(cyclopropylmethyl)-1-isopropyl-2,4-dioxo-1,2,3,4-tetrahydroquinazolin-6-yl)carbamoyl)piperidin-3-yl)carbamoyl)benzoate]: on RORγt [1], the inhibition at 3 µM came to 102%. Further, the figures for the inhibition at 1 µM on RORγt [2] and on RORγt [3] were 102% and 109%, respectively.
Turning to `CC(C)n1c(=O)n(CC2CC2)c(=O)c2cc(NC(=O)N3CCO[C@@H](C(=O)Nc4cnc(C#N)c(Cl)c4)C3)ccc21` [Example 122, (2R)-N^2-(5-chloro-6-cyanopyridin-3-yl)-N^4-(3-(cyclopropylmethyl)-1-isopropyl-2,4-dioxo-1,2,3,4-tetrahydroquinazolin-6-yl)morpholine-2,4-dicarboxamide], the inhibition at 3 µM on RORγt [1] is 103%. Also, the inhibition at 1 µM at RORγt [2] worked out at 101%; on RORγt [3] it was 112%.
On the same counts, the results for `COC(=O)c1ccc(C(=O)NC2CCCN(C(=O)Nc3ccc4c(c3)c(=O)n(CC3CC3)c(=O)n4C(C)C)C2)cc1` (stereo not drawn) [Example 132, methyl 4-((1-((3-(cyclopropylmethyl)-1-isopropyl-2,4-dioxo-1,2,3,4-tetrahydroquinazolin-6-yl)carbamoyl)piperidin-3-yl)carbamoyl)benzoate] are 100%, 102% and 112%.
The like results for `CC(C)n1c(=O)n(CC2CC2)c(=O)c2cc(NC(=O)N3CCOC(C(=O)Nc4cc(F)c(C#N)cc4F)C3)ccc21` (stereo not drawn) [Example 135, N^2-(4-cyano-2,5-difluorophenyl)-N^4-(3-(cyclopropylmethyl)-1-isopropyl-2,4-dioxo-1,2,3,4-tetrahydroquinazolin-6-yl)morpholine-2,4-dicarboxamide] were, in that order, 99%, 102% and 113%.
The like results for `CC(C)n1c(=O)n(CC2CC2)c(=O)c2cc(NC(=O)N3CCCC(NC(=O)Nc4ccccc4)C3)ccc21` (stereo not drawn) [Example 146, N-(3-(cyclopropylmethyl)-1-isopropyl-2,4-dioxo-1,2,3,4-tetrahydroquinazolin-6-yl)-3-((phenylcarbamoyl)amino) piperidine-1-carboxamide] were, in that order, 101%, 102% and 103%.
For the molecule `CC(C)n1c(=O)n(CC2CC2)c(=O)c2cc(NC(=O)N3CCCC(NC(=O)c4ccc(C#N)nc4)C3)ccc21` (stereo not drawn) [Example 157, 6-cyano-N-(1-((3-(cyclopropylmethyl)-1-isopropyl-2,4-dioxo-1,2,3,4-tetrahydroquinazolin-6-yl)carbamoyl)piperidin-3-yl) nicotinamide], the inhibition at 3 µM at RORγt [1] worked out at 102%. Moreover, the inhibition at 1 µM at RORγt [2] stood at 102%; at RORγt [3], 109%.
Take `CC(C)n1c(=O)n(CC2CC2)c(=O)c2cc(NC(=O)N3CCO[C@@H](C(=O)Nc4cc(F)c(C#N)cc4F)C3)ccc21` [Example 168, (2R)-N^2-(4-cyano-2,5-difluorophenyl)-N^4-(3-(cyclopropylmethyl)-1-isopropyl-2,4-dioxo-1,2,3,4-tetrahydroquinazolin-6-yl)morpholine-2,4-dicarboxamide]: the inhibition at 3 µM on RORγt [1] was determined as 102%. For the same molecule, the inhibition at 1 µM amounted to 102% on RORγt [2] and 108% on RORγt [3].
For `CC(C)n1c(=O)n(CC2CC2)c(=O)c2cc(NC(=O)N3CCO[C@@H](C(=O)Nc4cc(F)c(C#N)cc4F)C3)c(F)cc21` [Example 171, (2R)-N^2-(4-cyano-2,5-difluorophenyl)-N^4-(3-(cyclopropylmethyl)-7-fluoro-1-isopropyl-2,4-dioxo-1,2,3,4-tetrahydroquinazolin-6-yl)morpholine-2,4-dicarboxamide], the inhibition at 3 µM at RORγt [1] turned out to be 103%. The inhibition at 1 µM at RORγt [2] came to 101%; at RORγt [3], 107%.
For the molecule `CC(C)n1c(=O)n(CC2CC2)c(=O)c2cc(NC(=O)N3CCO[C@@H](C(=O)Nc4ccc(C#N)c(F)c4)C3)c(F)cc21` [Example 172, (2R)-N^2-(4-cyano-3-fluorophenyl)-N^4-(3-(cyclopropylmethyl)-7-fluoro-1-isopropyl-2,4-dioxo-1,2,3,4-tetrahydroquinazolin-6-yl)morpholine-2,4-dicarboxamide], the inhibition at 3 µM on RORγt [1] was determined as 105%. Also, the inhibition at 1 µM at RORγt [2] turned out to be 102%; at RORγt [3] it was 111%.
On the same counts, the results for `CC(C)n1c(=O)n(CC2CC2)c(=O)c2cc(NC(=O)N3CCOC(C(=O)Nc4ccc(C#N)c(F)c4)C3)ccc21` (stereo not drawn) [Example 176, N^2-(4-cyano-3-fluorophenyl)-N^4-(3-(cyclopropylmethyl)-1-isopropyl-2,4-dioxo-1,2,3,4-tetrahydroquinazolin-6-yl)morpholine-2,4-dicarboxamide] are 100%, 101% and 111%.
